Data: ChEMBL document CHEMBL1201862, “PubChem BioAssay data set” (2004)
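All cell lines were grown in 96-well plates and treated with compound for 48 hours. GI50 = concentration required for 50% inhibition of growth.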 Activity calls are given as the source filed them. No stated cut-off is given here; in the data, active = GI50 up to about 1.1 µM and inactive = higher.

Experiments:
Assay in all cases: NCI tumour cell line growth inhibition, 48 h
OVCAR-3 = system: OVCAR-3
LOX IMVI = system: LOX IMVI
NCI-H522 = system: NCI-H522
RPMI-8226 = system: RPMI-8226
KM12 = system: KM12
OVCAR-4 = system: OVCAR-4
NCI-H23 = system: NCI-H23
SF-268 = system: SF-268
SF-295 = system: SF-295
UACC-257 = system: UACC-257
K562 = system: K562
SW-620 = system: SW-620
SN12C = system: SN12C
SK-MEL-28 = system: SK-MEL-28
A498 = system: A498
SK-MEL-2 = system: SK-MEL-2
OVCAR-8 = system: OVCAR-8
RXF 393 = system: RXF 393
EKVX = system: EKVX
HOP-92 = system: HOP-92

Measured: GI50

COc1ccc2oc(=N)c(C(=O)Nc3ccccc3)cc2c1
inactive: OVCAR-3 30.5 µM | LOX IMVI 31.6 µM | NCI-H522 2.58 µM | RPMI-8226 15.7 µM | KM12 24.7 µM | OVCAR-4 45.6 µM | NCI-H23 15.2 µM | SF-268 20.6 µM | SF-295 16 µM | UACC-257 62.5 µM | K562 1.26 µM | SW-620 22 µM | SN12C 36.2 µM | SK-MEL-28 30 µM | A498 17.1 µM | SK-MEL-2 17.2 µM | OVCAR-8 19.2 µM | RXF 393 17.3 µM | EKVX 26.8 µM

COc1cc([C@@H]2c3cc4c(cc3[C@@H](OC3OC5COC(C)OC5C(O)C3O)[C@H]3COC(=O)[C@H]23)OCO4)cc(OC)c1O (stereo partly drawn)
inactive: OVCAR-3 39.4 µM | LOX IMVI 2.74 µM | NCI-H522 6.03 µM | KM12 18.6 µM | OVCAR-4 113 µM | NCI-H23 6.01 µM | HOP-92 9.2 µM | SF-268 7.6 µM | SF-295 5.92 µM | UACC-257 37.2 µM | SW-620 6.71 µM | SN12C 5.2 µM | SK-MEL-28 22.1 µM | A498 7.14 µM | SK-MEL-2 21.7 µM | OVCAR-8 11.3 µM | RXF 393 14.9 µM | EKVX 27.7 µM

CC(=O)NC1C(O)CC(OCCCSCCN)(C(=O)O)OC1C(O)C(O)CO (stereo not drawn)
inactive: LOX IMVI > 100 µM | RPMI-8226 > 100 µM | KM12 > 100 µM | OVCAR-4 > 100 µM | NCI-H23 > 100 µM | HOP-92 > 100 µM | SF-268 > 100 µM | SF-295 > 100 µM | UACC-257 > 100 µM | SW-620 > 100 µM | SN12C > 100 µM | SK-MEL-28 > 100 µM | A498 > 100 µM | SK-MEL-2 > 100 µM | OVCAR-8 > 100 µM | RXF 393 > 100 µM | EKVX > 100 µM

CCOC(=O)C(C#N)(Cc1c[nH]c2ccccc12)NC(C)=O (stereo not drawn)
inactive: OVCAR-3 > 100 µM | LOX IMVI > 100 µM | NCI-H522 > 100 µM | RPMI-8226 > 100 µM | KM12 > 100 µM | OVCAR-4 > 100 µM | NCI-H23 > 100 µM | HOP-92 > 100 µM | SF-268 > 100 µM | SF-295 > 100 µM | UACC-257 > 100 µM | K562 > 100 µM | SW-620 > 100 µM | SN12C > 100 µM | SK-MEL-28 > 100 µM | SK-MEL-2 > 100 µM | OVCAR-8 > 100 µM | RXF 393 > 100 µM | EKVX > 100 µM
